Target: wild-type human cardiac sodium channel, hNav1.5 (Homo sapiens, UniProt Q14524)
Assay: Late INa screening assay (late sodium current, PatchXpress whole cell patch clamp)
Format: cell-based
Details: compound at 10 μM; read-out: Late INa % blk

wild-type human cardiac sodium channel, hNav1.5, sequence (Q14524 whole entry): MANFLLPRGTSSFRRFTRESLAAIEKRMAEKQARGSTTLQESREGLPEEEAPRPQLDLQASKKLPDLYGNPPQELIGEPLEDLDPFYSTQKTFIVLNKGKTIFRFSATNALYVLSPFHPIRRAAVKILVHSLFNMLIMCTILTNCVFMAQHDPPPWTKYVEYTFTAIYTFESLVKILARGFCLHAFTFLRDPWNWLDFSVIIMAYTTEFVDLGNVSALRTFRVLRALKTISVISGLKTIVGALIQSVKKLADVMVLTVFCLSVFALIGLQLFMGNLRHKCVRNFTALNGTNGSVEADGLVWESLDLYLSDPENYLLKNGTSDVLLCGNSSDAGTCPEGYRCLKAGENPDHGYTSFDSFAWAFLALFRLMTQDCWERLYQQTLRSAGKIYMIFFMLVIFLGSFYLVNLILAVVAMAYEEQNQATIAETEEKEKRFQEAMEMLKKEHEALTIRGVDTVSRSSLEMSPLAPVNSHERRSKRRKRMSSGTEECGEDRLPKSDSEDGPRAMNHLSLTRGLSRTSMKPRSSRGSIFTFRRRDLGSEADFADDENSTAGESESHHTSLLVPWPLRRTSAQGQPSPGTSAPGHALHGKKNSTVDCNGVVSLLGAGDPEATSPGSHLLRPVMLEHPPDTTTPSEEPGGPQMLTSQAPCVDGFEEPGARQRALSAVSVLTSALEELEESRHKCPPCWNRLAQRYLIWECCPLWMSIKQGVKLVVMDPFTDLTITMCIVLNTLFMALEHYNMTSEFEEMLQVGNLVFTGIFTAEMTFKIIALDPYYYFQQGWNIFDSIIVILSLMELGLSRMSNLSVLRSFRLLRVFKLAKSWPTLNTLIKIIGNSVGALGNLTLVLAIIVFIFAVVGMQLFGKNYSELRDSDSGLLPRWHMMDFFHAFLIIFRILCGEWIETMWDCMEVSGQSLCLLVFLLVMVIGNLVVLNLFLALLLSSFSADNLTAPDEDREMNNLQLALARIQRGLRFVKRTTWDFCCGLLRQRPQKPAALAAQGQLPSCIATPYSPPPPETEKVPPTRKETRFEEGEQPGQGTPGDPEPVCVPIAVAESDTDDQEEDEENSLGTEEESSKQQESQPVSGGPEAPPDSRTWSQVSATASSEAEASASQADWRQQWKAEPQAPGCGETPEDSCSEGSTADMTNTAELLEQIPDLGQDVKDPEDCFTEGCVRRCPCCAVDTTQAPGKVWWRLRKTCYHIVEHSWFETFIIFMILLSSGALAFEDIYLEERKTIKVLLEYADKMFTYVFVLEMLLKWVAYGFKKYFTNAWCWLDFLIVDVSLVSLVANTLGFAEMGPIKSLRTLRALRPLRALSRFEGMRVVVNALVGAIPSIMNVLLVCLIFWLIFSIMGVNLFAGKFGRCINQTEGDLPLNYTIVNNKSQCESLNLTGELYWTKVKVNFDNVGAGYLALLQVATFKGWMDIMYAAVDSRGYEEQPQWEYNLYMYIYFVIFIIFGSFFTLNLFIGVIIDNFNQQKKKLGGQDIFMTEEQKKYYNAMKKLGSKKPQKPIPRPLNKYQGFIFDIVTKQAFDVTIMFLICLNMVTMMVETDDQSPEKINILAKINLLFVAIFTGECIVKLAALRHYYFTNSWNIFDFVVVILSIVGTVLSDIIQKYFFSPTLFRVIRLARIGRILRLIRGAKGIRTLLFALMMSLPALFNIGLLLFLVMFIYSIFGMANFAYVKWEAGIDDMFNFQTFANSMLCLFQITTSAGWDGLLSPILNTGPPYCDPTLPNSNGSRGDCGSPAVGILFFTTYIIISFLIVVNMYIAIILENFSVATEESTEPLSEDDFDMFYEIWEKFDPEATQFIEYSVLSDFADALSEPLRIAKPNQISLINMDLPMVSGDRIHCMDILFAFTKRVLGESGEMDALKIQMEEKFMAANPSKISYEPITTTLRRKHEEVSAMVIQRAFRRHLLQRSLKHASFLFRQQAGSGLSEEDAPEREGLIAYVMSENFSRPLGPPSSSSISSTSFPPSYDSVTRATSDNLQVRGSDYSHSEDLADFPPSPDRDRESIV

Row | SMILES | inhibition at 10 µM [%]
1 | CCOC(=O)C1=C(C(F)(F)F)Nc2nnnn2C1c1cccs1 (stereo not drawn) [PT-016, ethyl 7-(thiophen-2-yl)-5-(trifluoromethyl)-4,7-dihydrotetrazolo[1,5-a]pyrimidine-6-carboxylate] | 30.7
2 | COc1ccc(C2C(C(=O)OCc3ccccc3)=C(C)Nc3[nH]ncc32)c2ccccc12 (stereo not drawn) [PT-333, benzyl 4-(4-methoxynaphthalen-1-yl)-6-methyl-4,7-dihydro-1H-pyrazolo[3,4-b]pyridine-5-carboxylate] | 13.1
3 | CC1=C(C(=O)NNC(=O)c2ccccc2)C(c2cccc3ccccc23)n2nnnc2N1 (stereo not drawn) [PT-069, N′-benzoyl-5-methyl-7-(naphthalen-1-yl)-4,7-dihydrotetrazolo[1,5-a]pyrimidine-6-carbohydrazide] | 11.5
4 | CCOC(=O)C1=C(C)Nc2nnnn2C1c1ccccc1-c1cccnc1 (stereo not drawn) [PT-459, ethyl 5-methyl-7-(2-(pyridin-3-yl)phenyl)-4,7-dihydrotetrazolo[1,5-a]pyrimidine-6-carboxylate] | 10.3
5 | CC1=C(C(=O)O[C@@H](C)c2ccccc2)C(c2ccc(N(C)C)c3ccccc23)n2nnnc2N1 (stereo partly drawn) [PT-054, (S)-1-phenylethyl 7-(4-(dimethylamino)naphthalen-1-yl)-5-methyl-4,7-dihydrotetrazolo[1,5-a]pyrimidine-6-carboxylate] | 72.4
6 | CCOC(=O)C1=C(C)Nc2nnnn2C1c1ccccc1-c1ccc(-c2nnn[nH]2)cc1 (stereo not drawn) [PT-500, ethyl 7-(4′-(1H-tetrazol-5-yl)biphenyl-2-yl)-5-methyl-4,7-dihydrotetrazolo[1,5-a]pyrimidine-6-carboxylate] | 2.7
7 | CC1=C(C(=O)OCc2ccccc2)C(c2ccc(S(C)(=O)=O)cc2)n2nnnc2N1 (stereo not drawn) [PT-355, benzyl 5-methyl-7-(4-(methylsulfonyl)phenyl)-4,7-dihydrotetrazolo[1,5-a]pyrimidine-6-carboxylate] | 14.8
8 | COCCOC(=O)C1=C(C)NC2=C(C(=O)CC(C)(C)C2)C1c1ccc(Oc2ccccc2)cc1 (stereo not drawn) [PT-156, 2-methoxyethyl 2,7,7-trimethyl-5-oxo-4-(4-phenoxyphenyl)-1,4,5,6,7,8-hexahydroquinoline-3-carboxylate] | 36.6
9 | CC1=C(C(=O)OCc2ccccc2)C(c2cccc3c2OCCO3)n2nnnc2N1 (stereo not drawn) [PT-036, benzyl 7-(2,3-dihydrobenzo[b][1,4]dioxin-5-yl)-5-methyl-4,7-dihydrotetrazolo[1,5-a]pyrimidine-6-carboxylate] | 41
10 | CCOC(=O)C1=C(C)NC(C)=C(C(=O)OCC)C1c1cccc(-c2ccccc2)c1 [PT-439, diethyl 4-(biphenyl-3-yl)-2,6-dimethyl-1,4-dihydropyridine-3,5-dicarboxylate] | 56.1
11 | CCOC(=O)C1=C(C)Nc2nnnn2C1c1ccccc1-c1ccncc1 (stereo not drawn) [PT-460, ethyl 5-methyl-7-(2-(pyridin-4-yl)phenyl)-4,7-dihydrotetrazolo[1,5-a]pyrimidine-6-carboxylate] | 22.1
12 | CC1=C(C(=O)OC(C)(C)C)C(c2cccc3ccccc23)n2nnnc2N1 (stereo not drawn) [PT-023, tert-butyl 5-methyl-7-(naphthalen-1-yl)-4,7-dihydrotetrazolo[1,5-a]pyrimidine-6-carboxylate] | 32.8
13 | CC1=C(C(=O)OCc2ccccc2)C(c2sccc2B(O)O)n2nnnc2N1 (stereo not drawn) [PT-256, 2-(6-(benzyloxycarbonyl)-5-methyl-4,7-dihydrotetrazolo[1,5-a]pyrimidin-7-yl)thiophen-3-ylboronic acid] | 25.7
14 | CC1=C(C(=O)OCc2ccccc2)C(c2ccccc2-c2ccc(C(C)O)cc2)n2nnnc2N1 (stereo not drawn) [PT-404, benzyl 7-(4′-(1-hydroxyethyl)biphenyl-2-yl)-5-methyl-4,7-dihydrotetrazolo[1,5-a]pyrimidine-6-carboxylate] | 80.9
15 | CCOC(=O)C1=C(C(C)C)Nc2nnnn2C1c1ccc2ccccc2c1 (stereo not drawn) [PT-012, ethyl 5-isopropyl-7-(naphthalen-2-yl)-4,7-dihydrotetrazolo[1,5-a]pyrimidine-6-carboxylate] | 40.1

Source: patent publication US20090012103A1, “SUBSTITUTED HETEROCYCLIC COMPOUNDS” (priority 2007, published 2009)
